Measurements taken from patent US20040097422A1, “Methods of use for tripeptidyl peptidase II inhibitors as anticancer agents” (priority 2002, published 2004).
“Also recorded” adds a separate entry of the source. Residues, ends and D or L forms follow the SMILES beside them. *: point of attachment. CH2Cl = ClC*

Assays:
Format in all cases: cell-based, human
U20S/centrin-GFP cells [1] = assay: Abnormal centriole numbers in transiently transfected U20S/centrin-GFP cells after inhibitor treatment
Excerpt: (§1) Cell Culture and Transfections. Normal human keratinocytes (NHKs) were isolated from neonatal foreskins and cultured as described previously (Jones, et al. 1997 Genes Dev 11, 2101-11). NHKs were transiently transfected using FuGENE 6 (Roche Molecular Biochemicals, Indianapolis, Ind.) according to manufacturer's instructions. The human osteosarcoma cell line U20S was obtained from the American Type Culture Collection (ATCC) and maintained in Dulbecco's modified Eagle medium (DMEM) supplemented with 10% fetal bovine serum, 50 units/ml penicillin and 50 μg/ml streptomycin. Stable populations expressing centrin-GFP were generated by transfecting U20S cells with 10 μg of a centrin-GFP construct using calcium phosphate co-precipitation (Chen, et al. 1987 Mol Cell Biol 7, 2745-2752) and expansion of stable clones after G418 selection. All transient transfection experiments in U20S/centrin-GFP cells were performed using calcium phosphate coprecipitation (Chen, 1987 Mol Cell Biol 7, 2745-2752). Expression plasmids used were c-Myc, E2F-1, HPV-16 E7, HPV-16 E6, or a hemagglutinin-tagged dominant-negative DP1 mutant (DP 1-HA). Empty vector controls (pCMVneo) were included in all experiments. In all transient transfection experiments, cells were co-transfected with either farnesylatable green fluorescent protein (GFP), DsRed fluorescent protein, or cyan fluorescent protein (CFP; all from Clontech, Inc., Palo Alto, Calif.) as indicated and only cells expressing the respective fluorescent protein were evaluated. The human Burkitt's lymphoma cell line GA-10 was obtained from ATCC and maintained in RPMI 1640 medium containing 10 mM HEPES and supplemented with 10% fetal bovine serum, 50 units/ml penicillin and 50 μg/ml streptomycin. Adapted GA-10 cells were obtained by cultivation of cells in the presence of 1 μM clastolactacystin β-lactone (CLBL; Sigma Corp., St. Louis, Mo.) or 0.1% dimethyl sulfoxide (DMSO; ICN, Inc., Costa Mesa, California).
Proteasome and TPPII inhibition. U20S/centrin-GFP cells were transiently transfected with expression plasmids as indicated using calcium phosphate coprecipitation, washed with PBS 14 hours after transfection, incubated in normal growth media for 8 hours, and incubated in the presence of the inhibitor for another 24 hours. For proteasome inhibition, clastolactacystin β-lactone (CLBL; Sigma Corp.) was used at a […] concentration dissolved in DMSO. The TPPII inhibitor H-Ala-Ala-Phe-chloromethylketone (AAF-CMK; Sigma Corp.) was used at a 1 or 10 μM concentration, respectively, dissolved in DMSO. TPPII inhibitors such as AAF-MCA (ala-ala-phe-methylcoumarin amide) are available from Peptides International, Inc., Louisville, Ky. […] Solvent controls (DMSO or water) were included in all experiments.
Whether this observed increase of cells with abnormal centrosome numbers results from a primary duplication error was further addressed by analyzing the ability of c-Myc to induce abnormal centriole synthesis under transient conditions. Centriole number abnormalities induced by c-Myc were compared to those obtained with different oncogenic stimuli which have been reported previously to deregulate centrosome duplication (Duensing, 2000 Proc Natl Acad USA 97, 10002-7). Besides c-Myc, each of HPV-16 E7, the cooperating oncogene HPV-16 E6, and E2F-1 were included in these experiments. U20S/centrin-GFP cells were transiently transfected with expression plasmids as indicated, and mitochondrial DsRed fluorescent protein was used as a transfection marker (FIGS. 2c,d). Since duplication of centrioles prior to a cell division gives rise to four centrioles, cells with more than four centrioles were considered to have an abnormal number of centrioles.
Analogous to cell cycle progression, centrosome duplication requires activity of the ubiquitin/proteasome machinery (Freed, et al. 1999 Gene Dev 13, 2242-57). […]

U20S/centrin-GFP cells [2] = assay: DNA content / cell cycle profile by propidium iodide flow cytometry; details: 10 μM, 24 hours
Procedure: Flow cytometry. DNA content of cells was analyzed by propidium iodide staining followed by flow cytometry as described previously (Thompson, et al. 1997 Oncogene 15, 3025-35).

TPPII = TPPII protein level in adapted GA-10 cells (immunoblot); details: GA-10 cells adapted to 1 μM CLBL
Procedure: Immunological Methods. Immunoblot analysis was performed as described previously (Jones et al., 1997). Antibodies used were directed against c-Myc (9E10; Covance/Babco, Berkeley, California), p53 (Ab-6; Oncogene Research Products, Inc., San Diego, Calif.), HPV-16 E7 (ED17; Santa Cruz Biotechnology, Inc., Santa Cruz, California), E2F-1 (C-20; Santa Cruz), HA (12CA5; Boehringer Mannheim, Mannheim, Germany), tripetidyl peptidase II (OEM Concepts, Inc.; Toms River, New Jersey), or Actin (C-2, Santa Cruz).
Based on observations herein that TPPII is required for c-Myc induced abnormal centriole duplication, the effect of growth of cells in the presence of a proteasome inhibitor on altered centrosome numbers, control of centrosome duplication, and cell viability was examined. Cells of a human t(8;14) positive, Epstein-Barr virus (EBV) negative Burkitt's lymphoma cell line GA-10 were used. Cells were grown in the presence of 1 μM CLBL (proteosome inhibitor clastolactacystin β-lactone) or with 0.1% DMSO as a solvent control.

[3] = system: Burkitt's lymphoma cell line GA-10; assay: Viability of GA-10 cells grown with proteasome inhibitor (trypan blue exclusion)
Procedure: FIG. […] FIG. 5b is an immunoblot analysis of TPPII and c-Myc expression in GA-10 cells adapted to grow in the presence of 1 μM CLBL or 0.1% DMSO. FIG. 5c is a visualizations of centrosomes in GA-10 cells adapted to grow in the presence of 0.1% DMSO (c) or 1 μM CLBL right. Immunofluorescence for γ-tubulin is rhodamine red. Nuclei were stained with DAPI. […] Each bar indicates average+standard error of triplicate colony counts.
as §1, with “The human Burkitt's lymphoma cell line GA-10 was obtained from ATCC and maintained in RPMI 1640 medium containing 10 mM HEPES and supplemented with 10% fetal bovine serum, 50 units/ml penicillin and 50 μg/ml streptomycin. Adapted GA-10 cells were obtained by cultivation of cells in the presence of 1 μM clastolactacystin β-lactone (CLBL; Sigma Corp., St. Louis, Mo.) or 0.1% dimethyl sulfoxide (DMSO; ICN, Inc., Costa Mesa, California).” left out

GA-10 cells = assay: Abnormal centrosome numbers in GA-10 cells by γ-tubulin immunofluorescence; details: GA-10 cells adapted to 1 μM CLBL; untreated 18.7%, DMSO 19.9%
Procedure: For immunofluorescence analysis, sections of formalin-fixed, paraffin-embedded tissue were processed as described previously (Duensing, 2000 Proc Natl Acad 801 USA 97, 10002-7). Cultured cells were either grown on coverslips or cytospin preparations were made from cells growing in suspension. Cells were fixed in 4% paraformaldehyde in PBS and permeabilized with 1% Triton-X 100 in PBS for 10 min each at room temperature. […] Ki-67 was detected using a mouse monoclonal antibody (clone Ki-67; Dako Cytomation California, Inc., Carpinteria, California) at a 1:100 dilution followed by a rhodomine red-labeled donkey anti-mouse secondary antibody as described above. […] Cells were analyzed using a Leica DMLB epifluorescence microscope equipped with a multiband and a CFP filter set (Omega Optical, Brattleboro, Vt.) and a Sony DKC5000 camera system. […]
The proportion of cells with abnormal centrosome numbers was determined using immunofluorescence microscopy for γ-tubulin. […]

CLBL-adapted GA-10 cells [4] = assay: Growth (viable cell number) of CLBL-adapted GA-10 cells; details: 0.1, 1.0, 10, 100 or 500 μM butabindide
Procedure: (§2) FIG. 5a is an analysis of viability of GA-10 cells grown in the presence of 1 μM CLBL or solvent control (0.1% DMSO) as determined by trypan blue exclusion. FIG. 5b is an immunoblot analysis of TPPII and c-Myc expression in GA-10 cells adapted to grow in the presence of 1 μM CLBL or 0.1% DMSO. FIG. 5c is a visualizations of centrosomes in GA-10 cells adapted to grow in the presence of 0.1% DMSO (c) or 1 μM CLBL right. Immunofluorescence for γ-tubulin is rhodamine red. Nuclei were stained with DAPI. […] Each bar indicates average+standard error of triplicate colony counts.
(§3) Centrosome duplication is necessary for orderly progression through mitosis and re-entry in the cell cycle (Hinchcliffe, et al. 2001 Genes Dev 15, 1167-81) in most mammalian cells. Whether TPPII activity is necessary for the growth of CLBL-adapted Burkitt's lymphoma cells was investigated.

CLBL-adapted GA-10 cells [5] = assay: Soft agar colony formation (clonogenic assay); details: 10 μM butabindide, one week
Procedure: Clonogenic assay. For assessment of soft agar colony formation, adapted GA-10 cells were suspended in 37° C.
as §3

[6] = system: CLBL-adapted Burkitt's lymphoma cells; assay: Mitotic spindle formation / centrosome function; details: butabindide treated
Procedure: as §2, §3

U20S/centrin-GFP cells [7] = assay: Simultaneous Ki-67 proliferation and centriole number assay in c-Myc transfected cells; details: 10 μM butabindide for 24 hours
Procedure: For immunofluorescence analysis, sections of formalin-fixed, paraffin-embedded tissue were processed as described previously (Duensing, 2000 Proc Natl Acad 801 USA 97, 10002-7). Cultured cells were either grown on coverslips or cytospin preparations were made from cells growing in suspension. Cells were fixed in 4% paraformaldehyde in PBS and permeabilized with 1% Triton-X 100 in PBS for 10 min each at room temperature. Cells were then blocked with 10% normal donkey serum (Jackson Immunoresearch, West Grove, Pa.) and incubated with a mouse monoclonal anti-γ-tubulin antibody (GTU-88; Sigma Corp.; St. Louis, Mo.) at a 1:2000 dilution overnight at 4° C. followed by a donkey anti-mouse rhodamine red conjugated secondary antibody (Jackson ImmunoResearch Laboratories, Inc., West Grove, Pa.) at a 1:100 dilution in PBS or a donkey anti-mouse FITC labeled secondary antibody at a 1:200 dilution in PBS for 2 hours at 37° C. Ki-67 was detected using a mouse monoclonal antibody (clone Ki-67; Dako Cytomation California, Inc., Carpinteria, California) at a 1:100 dilution followed by a rhodomine red-labeled donkey anti-mouse secondary antibody as described above. […] Cells were analyzed using a Leica DMLB epifluorescence microscope equipped with a multiband and a CFP filter set (Omega Optical, Brattleboro, Vt.) and a Sony DKC5000 camera system. […]

| SMILES | Significance of decrease in abnormal centriole numbers, c-Myc transfected cells (U20S/centrin-GFP cells [1]; 1 μM AAF-CMK, p≦0.05) | Changes in abnormal centriole numbers in E2F-1 or HPV-16 E7 expressing cells (U20S/centrin-GFP cells [1]; E2F-1 or HPV-16 E7 transfected, AAF-CMK for 24 hours) | Proportion of c-Myc expressing cells with abnormal centriole numbers (U20S/centrin-GFP cells [1]; c-Myc transfected, 1 and 10 μM AAF-CMK for 24 hours) | Cell cycle profile (DNA content) (U20S/centrin-GFP cells [2]) | Decrease of abnormal centriole duplication driven by E2F-1 (U20S/centrin-GFP cells [1]; E2F-1 transfected, 0.8 mM CLBL for 24 hours, p≦0.05) [fold] | Decrease of abnormal centriole duplication driven by HPV-16 E7 (U20S/centrin-GFP cells [1]; HPV-16 E7 transfected, 0.8 mM CLBL for 24 hours, p≦0.01) [fold] | Proportion of cells with abnormal centriole numbers in cells expressing c-Myc (U20S/centrin-GFP cells [1]; c-Myc transfected, 0.8 mM CLBL for 24 hours) | Protein levels of TPPII (TPPII) | Cell viability of GA-10 cells ([3]; 1 μM CLBL) | Time until cell survival was restored ([3]; 1 μM CLBL) [days] | Cell viability of GA-10 cells at higher concentrations ([3]; higher concentrations of CLBL than 1 μM) | Proportion of cells with abnormal centrosome numbers (GA-10 cells) [%] | Growth of CLBL-adapted GA-10 cells (CLBL-adapted GA-10 cells [4]) | Number of c-Myc expressing cells with abnormal centriole numbers (U20S/centrin-GFP cells [1]; c-Myc transfected, butabindide increasing concentrations up to 10 μM, 24 hours, p≦0.001) | Colony formation in soft agar (CLBL-adapted GA-10 cells [5]) | Spindle formation in treated cells [6] | Cells unable to nucleate a microtubule spindle ([6]; 44% without) [%] | Ki-67 negative growth arrested cells (U20S/centrin-GFP cells [7]) | Number of c-Myc expressing cells with abnormal centriole numbers (mostly Ki-67 positive) (U20S/centrin-GFP cells [7]; CFP transfection marker) |
| --- | --- | --- | --- | --- | --- | --- | --- | --- | --- | --- | --- | --- | --- | --- | --- | --- | --- | --- | --- |
| C[C@H](N)C(=O)N[C@@H](C)C(=O)N[C@@H](Cc1ccccc1)C(=O)CCl [AAF-CMK, H-Ala-Ala-Phe-chloromethylketone] (H-Ala-Ala-Phe-CH2Cl) | statistically significant | not significant | Reduction of the proportion of c-Myc expressing cells with abnormal centriole numbers | neither treatment of cells with 10 μM AAF-CMK, nor with 10 μM butabindide, was found to substantially alter the cell cycle profile | – | – | – | – | – | – | – | – | – | – | – | – | – | – | – |
| CC(C)[C@H](O)[C@@]12NC(=O)[C@H](C)[C@@H]1OC2=O [CLBL, clastolactacystin β-lactone] | – | – | – | – | 1.7 | 2 | did not significantly reduce | increased protein levels of TPPII | marked decrease of cell viability | ≤ 10 | massive cell death | 19.4 | – | – | – | – | – | – | – |
| CCCCNC(=O)[C@@H]1Cc2ccccc2N1C(=O)[C@@H](N)CC [butabindide] | – | – | – | neither treatment of cells with 10 μM AAF-CMK, nor with 10 μM butabindide, was found to substantially alter the cell cycle profile | – | – | – | – | – | – | – | – | reduced the growth of CLBL-adapted GA-10 cells in a dose dependent manner | dose-dependent and statistically highly significant reduction; also recorded: completely blocks abnormal centriole duplication | significantly suppressed colony formation | abrogation of spindle formation | 66 | major increases of Ki-67 negative growth arrested cells were not observed | decrease in the number of c-Myc expressing cells with abnormal centriole numbers |
